Test results from article PMC8432116, “Drug–Drug Interaction between Tacrolimus and Vonoprazan in Kidney Transplant Recipients” (Journal of Clinical Medicine, 2021).
Values joined by “and” are separate entries in the source; they are usually repeats but may differ in a detail not shown here. Equal values may be shown once. Read-outs that look alike come from different tables or passages of the source. Values belong to the molecule of their own block, whether it stands above or below them.

Columns and labels:
[1] = Clinical observation of adverse events and gastric symptoms after switching; assay type: in vivo, human
Experimental: (§1) Eighteen kidney transplant recipients were recruited for this study from February 2015 to July 2020 (Table 1). The recipients were treated with tacrolimus-based immunosuppression, tacrolimus QD (Graceptor®; Astellas Pharma, Tokyo, Japan) in combination with mycophenolate mofetil and corticosteroids. The initial dose of tacrolimus QD was 0.15–0.20 mg/kg/day for 3–7 days before transplantation. The patients’ PPIs were switched from oral rabeprazole to vonoprazan (TAK-438; Takecab®; Takeda Pharmaceutical Company Limited., Tokyo, Japan) for intensive gastric acid suppression on postoperative days (POD) 3–43. The median (range) dose of oral rabeprazole and vonoprazan were 0.16 (0.11–0.22) and 0.31 (0.11–0.44) mg/kg/day, respectively (Table 1). Blood concentrations of tacrolimus were […] when the rabeprazole was switched to vonoprazan. Liver function for the patients was normal. […] Major symptoms due to gastric ulcer, retching, and heartburn disappeared by switching from rabeprazole to vonoprazan.

[2] = Whole blood trough concentration and C/D ratio of tacrolimus before and after switching PPI from rabeprazole to vonoprazan; assay type: in vivo, human; conditions: for Trough tacrolimus concentration, typical case / C/D ratio of tacrolimus, typical case: single case; for Percentage increase of the C/D ratio: vonoprazan coadministration; for Tacrolimus trough concentration, median (range): whole blood, 18 kidney transplant recipients
Experimental: as §1
Whole blood concentrations of tacrolimus were measured using the ARCHITECT chemiluminescent immunoassay system (Abbot, Abbot Park, IL, USA). Blood samples were collected in the morning just before the morning administration of tacrolimus to determine the trough levels. Tacrolimus dose was adjusted to achieve predefined target concentration ranges of 5–10 ng/mL (POD −3–14), 7–8 ng/mL (POD 14–28), and 5–8 ng/mL (after POD 28). The change in concentration/dose (C/D; in nanogram per milliliter/milligram per kilogram) ratio of tacrolimus before and after initiating oral vonoprazan was calculated to assess the DDIs.
Genomic DNA was extracted from peripheral whole blood samples using the QIAamp DNA blood kit system (Qiagen, Hilden, Germany) according to the manufacturer’s instruction. Subjects were genotyped for CYP2C19 rs4244285 (CYP2C19*2), CYP2C19 rs4986893 (CYP2C19*3), and CYP3A5 rs776746 (CYP3A5*3) polymorphisms. These variants were identified by real-time polymerase chain reaction (PCR) using a TaqMan® Drug Metabolism Genotyping Assays (Thermo Fisher Scientific, Waltham, MA, USA) with a QuantStudio 3 real-time PCR system (Thermo Fisher Scientific). Recipients were categorized into two groups based on the CYP2C19 genotypes (extensive metabolizer (EM; CYP2C19*1/*1)), intermediate metabolizer (IM; CYP2C19*1/*2 and *1/*3), and poor metabolizer (PM; *2/*2, *2/*3, and *3/*3)] and the CYP3A5 genotypes (CYP3A5*1 carrier (CYP3A5*1/*1 and CYP3A5*1/*3)) and the noncarrier (CYP3A5*3/*3)].
The Wilcoxon signed-rank test was used to compare the difference in the concentration and C/D ratio of tacrolimus before and after switching to vonoprazan. Differences in the concentration and C/D ratio of tacrolimus among the genotypes were compared by the Mann–Whitney U test. The statistical analyses were carried out using SPSS 26.0 (IBM, Tokyo, Japan). Results with a p value of <0.05 were considered statistically significant.

[3] = parameters: method as in PMID 19177031; conditions: cited from earlier work
[4] = cited from earlier work; for Increase in C/D ratio of tacrolimus after the conversion: outpatient phase of post-transplantation
P-glycoprotein = system: P-glycoprotein; parameters: method as in PMID 15467223; conditions: read-out: IC50 for inhibition of P-glycoprotein transporter activity; cited from earlier work
[5] = Laboratory data of liver and kidney function before and after the switch; assay type: in vivo, human; conditions: during the named PPI phase; 18 recipients on tacrolimus
Experimental: as §1

[6] = Estimated maximum concentration in the intestinal lumen according to DDI guidelines; parameters: species or system human
From the text: P-glycoprotein, a drug efflux transporter expressed in the intestinal lumen, can be considered in addition to CYP as the mechanism of the DDIs between vonoprazan and tacrolimus.

[7] = CYP2C19 EM, n=5, rabeprazole to vonoprazan
[8] = CYP2C19 IM/PM, n=13, Rabeprazole
[9] = CYP2C19 IM/PM, n=13, Vonoprazan
[10] = CYP2C19 IM/PM, n=13, rabeprazole to vonoprazan
[11] = CYP3A5 *1 carrier, n=5, Rabeprazole
[12] = CYP3A5 *1 carrier, n=5, Vonoprazan
[13] = CYP3A5 *1 carrier, n=5, rabeprazole to vonoprazan
[14] = CYP3A5 *1 noncarrier, n=13, Rabeprazole
[15] = CYP3A5 *1 noncarrier, n=13, Vonoprazan
[16] = CYP3A5 *1 noncarrier, n=13, rabeprazole to vonoprazan
[17] = rabeprazole to vonoprazan, 18 recipients
[18] = vonoprazan coadministration vs rabeprazole

Tacrolims C/D Ratio, median ([2]; CYP2C19 EM, n=5, Rabeprazole): 25.6 (ng/mL)/(mg/kg/day) | Tacrolimus Concentration, median ([2]; CYP2C19 EM, n=5, Rabeprazole): 4.0 ng/mL | Tacrolims C/D Ratio, median ([2]; CYP2C19 EM, n=5, Vonoprazan): 40.7 (ng/mL)/(mg/kg/day) | Tacrolimus Concentration, median ([2]; CYP2C19 EM, n=5, Vonoprazan): 8.5 ng/mL | ΔC/D Ratio, median [2, 7]: 15.1 | ΔConcentration, median [2, 7]: 3.6 ng/mL | Tacrolims C/D Ratio, median [2, 8]: 39.5 (ng/mL)/(mg/kg/day) | Tacrolimus Concentration, median [2, 8]: 5.3 ng/mL | Tacrolims C/D Ratio, median [2, 9]: 50.4 (ng/mL)/(mg/kg/day) | Tacrolimus Concentration, median [2, 9]: 7.7 ng/mL | ΔC/D Ratio, median [2, 10]: 6.3 | ΔConcentration, median [2, 10]: 3 ng/mL | Tacrolims C/D Ratio, median [2, 11]: 36.9 (ng/mL)/(mg/kg/day) | Tacrolimus Concentration, median [2, 11]: 5.3 ng/mL | Tacrolims C/D Ratio, median [2, 12]: 45.1 (ng/mL)/(mg/kg/day) | Tacrolimus Concentration, median [2, 12]: 8.5 ng/mL | ΔC/D Ratio, median [2, 13]: 14.6 | ΔConcentration, median [2, 13]: 2.8 ng/mL | Tacrolims C/D Ratio, median [2, 14]: 44.9 (ng/mL)/(mg/kg/day) | Tacrolimus Concentration, median [2, 14]: 5.0 ng/mL | Tacrolims C/D Ratio, median [2, 15]: 50.4 (ng/mL)/(mg/kg/day) | Tacrolimus Concentration, median [2, 15]: 7.5 ng/mL | ΔC/D Ratio, median [2, 16]: 18.3 | ΔConcentration, median [2, 16]: 3.3 ng/mL | Percent change in tacrolimus C/D ratio after the switching, median (range) [2, 17]: 41.8% and 41.8 (2.7–129.8) % | Percent change in tacrolimus concentration after the switching, median (range) [2, 17]: 65.8% and 65.8 (0.0–192.5) % | Trough tacrolimus concentration, typical case ([2]; after switching to vonoprazan): 9.4 to 10.7 ng/mL | C/D ratio of tacrolimus, typical case ([2]; rabeprazole phase): 26.2–29.0 | Trough tacrolimus concentration, typical case ([2]; rabeprazole phase): 3.8 to 4.7 ng/mL | C/D ratio of tacrolimus, typical case ([2]; vonoprazan phase, 10 mg, before dose escalation): 33.6–37.1 | C/D ratio of tacrolimus, typical case ([2]; vonoprazan phase, after escalation to 20 mg): 41.3–48.8 | Elevation in C/D ratio of tacrolimus [2, 18]: 1.4 fold | Elevation in blood concentration of tacrolimus [2, 18]: 1.7 fold | Percentage increase of the C/D ratio ([2]; CYP3A5*1 carriers): 44.4% | Percentage increase of the C/D ratio ([2]; CYP3A5*1 noncarriers): 39.1% | Tacrolimus trough concentration, median (range) ([2]; with rabeprazole, before switching): 5.2 (3.6–7.4) ng/mL | Tacrolimus trough concentration, median (range) ([2]; with vonoprazan, after switching): 8.1 (6.1–11.7) ng/mL | Tacrolimus C/D ratio, median (range) ([2]; with rabeprazole, before switching, 18 recipients): 38.1 (16.5–138.1) (ng/mL)/(mg/kg) | Tacrolimus C/D ratio, median (range) ([2]; with vonoprazan, 7 days after initiating, 18 recipients): 48.9 (26.6–207.2) (ng/mL)/(mg/kg)
Compound: C=CC[C@@H]1/C=C(\C)C[C@H](C)C[C@H](OC)[C@H]2O[C@@](O)(C(=O)C(=O)N3CCCC[C@H]3C(=O)O[C@H](/C(C)=C/[C@@H]3CC[C@@H](O)[C@H](OC)C3)[C@H](C)[C@@H](O)CC1=O)[C@H](C)C[C@@H]2OC [Tacrolimus]
Adverse events ([1]; all patients, after switching to vonoprazan, tacrolimus kept in therapeutic range): No adverse event was observed | Therapeutic range of blood concentration [3]: 5 to 15 ng/mL | Increase in C/D ratio of tacrolimus after the conversion ([4]; ref 27): 10.6% | Increase in C/D ratio of tacrolimus after the conversion ([4]; ref 30): no increase | Increase of the C/D ratio of tacrolimus after switching rabeprazole to vonoprazan ([4]; outpatients 2–7 years post-transplantation): 1.1 fold | Increase of tacrolimus trough levels after switching to vonoprazan ([4]; outpatients, even in the CYP2C19 IM/PM in the CYP3A5*1 noncarriers): no significant increase

Alanine aminotransferase, median (range) [5]: 28 IU/L | Aspartate aminotransferase, median (range) [5]: 16 IU/L | Blood urine nitrogen, median (range) [5]: 24.2 (9.8–78.7) mg/dL | Serum creatinine, median (range) [5]: 1.55 (0.62–4.31) mg/dL | Estimated maximum concentration in the intestinal lumen ([6]; administered at 10 mg): 111 µM
Compound: COCCCOc1ccnc(C[S+]([O-])c2nc3ccccc3[nH]2)c1C (stereo not shown) [Rabeprazole]
IC50 (P-glycoprotein): ≥ 100 µM

Alanine aminotransferase, median (range) [5]: 22 IU/L | Aspartate aminotransferase, median (range) [5]: 15 IU/L | Blood urine nitrogen, median (range) [5]: 17.4 (7.5–45.4) mg/dL | Serum creatinine, median (range) [5]: 1.21 (0.58–2.84) mg/dL | Estimated maximum concentration in the intestinal lumen ([6]; administered at 20 mg): 231 µM
Compound: CNCc1cc(-c2ccccc2F)n(S(=O)(=O)c2cccnc2)c1.O=C(O)/C=C/C(=O)O [Vonoprazan, 1-[5-(2-Fluorophenyl)-1-(pyridin-3-ylsulfonyl)-1H-pyrrol-3-yl]-N-methylmethanamine monofumarate]
Major symptoms due to gastric ulcer, retching and heartburn ([1]; switching from rabeprazole to vonoprazan): disappeared | IC50 (P-glycoprotein): 50 µM
